Some results are limits rather than exact numbers.

What all share (format): biochemical
Assay [1] has as its target T1, FXIII (Homo sapiens, UniProt P00488).
T1 sequence (P00488 1-732): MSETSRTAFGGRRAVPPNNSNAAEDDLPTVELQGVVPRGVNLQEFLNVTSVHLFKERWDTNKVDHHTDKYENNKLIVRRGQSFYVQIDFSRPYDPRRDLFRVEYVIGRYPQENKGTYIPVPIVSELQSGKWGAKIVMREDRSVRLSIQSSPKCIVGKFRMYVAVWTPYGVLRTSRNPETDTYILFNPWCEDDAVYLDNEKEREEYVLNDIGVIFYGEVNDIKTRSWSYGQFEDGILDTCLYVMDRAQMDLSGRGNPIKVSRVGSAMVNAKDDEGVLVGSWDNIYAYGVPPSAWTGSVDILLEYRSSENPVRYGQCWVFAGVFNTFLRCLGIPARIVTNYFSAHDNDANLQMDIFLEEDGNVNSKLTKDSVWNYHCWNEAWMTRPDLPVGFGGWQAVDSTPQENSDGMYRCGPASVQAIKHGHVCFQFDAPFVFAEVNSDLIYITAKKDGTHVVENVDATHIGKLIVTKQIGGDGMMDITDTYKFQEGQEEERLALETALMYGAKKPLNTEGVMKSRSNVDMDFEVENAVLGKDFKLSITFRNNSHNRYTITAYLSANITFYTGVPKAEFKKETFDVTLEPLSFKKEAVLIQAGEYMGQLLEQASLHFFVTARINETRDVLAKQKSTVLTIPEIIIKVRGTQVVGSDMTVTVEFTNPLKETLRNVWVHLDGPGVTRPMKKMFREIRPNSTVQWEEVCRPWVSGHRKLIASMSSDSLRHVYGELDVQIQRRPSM
The assay can be described thus: Transglutaminase inhibition, IC50 at FXIII. The note with it: Table 2.

The target in assay [2] is T2, recombinant human tissue transglutaminase (His6-rh-TG2) (Homo sapiens, UniProt P21980).
T2 sequence (P21980 1-687): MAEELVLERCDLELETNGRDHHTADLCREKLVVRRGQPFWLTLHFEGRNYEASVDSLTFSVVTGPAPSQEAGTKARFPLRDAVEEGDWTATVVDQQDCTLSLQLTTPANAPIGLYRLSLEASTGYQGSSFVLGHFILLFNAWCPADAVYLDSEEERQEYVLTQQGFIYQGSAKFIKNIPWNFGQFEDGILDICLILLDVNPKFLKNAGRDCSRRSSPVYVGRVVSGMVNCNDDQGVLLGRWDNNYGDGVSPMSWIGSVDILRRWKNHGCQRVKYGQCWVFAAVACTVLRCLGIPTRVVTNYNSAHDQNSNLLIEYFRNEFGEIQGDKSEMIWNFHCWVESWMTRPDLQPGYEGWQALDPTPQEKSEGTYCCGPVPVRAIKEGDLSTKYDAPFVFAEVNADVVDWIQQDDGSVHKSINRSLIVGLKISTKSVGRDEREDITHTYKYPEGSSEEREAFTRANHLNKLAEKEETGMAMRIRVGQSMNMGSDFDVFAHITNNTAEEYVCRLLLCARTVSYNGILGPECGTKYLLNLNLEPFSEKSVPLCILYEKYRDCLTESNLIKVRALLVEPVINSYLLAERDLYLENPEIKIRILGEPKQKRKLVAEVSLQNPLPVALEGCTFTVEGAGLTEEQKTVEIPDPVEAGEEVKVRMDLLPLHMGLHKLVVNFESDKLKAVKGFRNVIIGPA
The assay can be described thus: Inactivation of human tissue transglutaminase, fluorescence assay, IC50. The note with it: Table 2; 5 min preincubation, 37° C. The protocol: 250 μg of lyophilized his-tagged recombinant human tissue transglutaminase (His6-rh-TG2) are reconstituted by the addition of 150 μl of water (resulting buffer 50 mM of NaH2PO4, 150 mM of NaCl, pH=8).
A 10 mM inhibitor stock solution in DMSO is prepared and diluted with buffer (50 mM of Tris-HCl, 10 mM of CaCl2, 5 mM of DTT, pH=7.5, respectively) to the 20-fold of the concentration desired for the inhibition mixture (at least 1/50 dilution resulting in 2% DMSO concentration).
900 μl of an assay solution composed of 55.56 mM of Tris, 11.11 mM of CaCl2, 0.11% PEG8000, 5.56 mM of DTT, 5.56 mM of glycine methyl ester and 50 μM of Abz-APE(CAD-DNP)QEA-OH, (patent number:), pH=7.5 are placed in a cuvette and brought to a temperature of 37° C. in the measuring cell of a spectrophotometer. 50 μl of the respective inhibitor solution are added to said solution (resulting in a concentration of less than 0.2% of DMSO in the mixture).
7 μl of the transglutaminase solution reconstituted above are diluted with 51 μl of buffer (50 mM of Tris, 100 mM of NaCl, 5 mM of DTT, pH=7.5). 50 μl of said enzyme solution (10 μg His6-rhTG2) are added to the assay solution containing the respective inhibitor concentration. The mixture is incubated for 5 min at 37° C. before the measurement is performed. λexc=313 nm and λem=418 nm, 15 min)
The resulting enzyme activity was measured by analyzing the slope of the straight line obtained by the increase in fluorescence.
DMSO is used instead of inhibitor stock solution in order to determine the non-inhibited enzyme activity. IC50 values are determined by plotting the resulting enzyme activity against the logarithm of the inhibitor concentration. IC50 is defined as the concentration of an inhibitor at which enzyme activity is reduced to 50% after 5 min of preincubation.

The target of assay [3] is T3, TG1 (Homo sapiens, UniProt P22735).
T3 sequence (P22735 1-817): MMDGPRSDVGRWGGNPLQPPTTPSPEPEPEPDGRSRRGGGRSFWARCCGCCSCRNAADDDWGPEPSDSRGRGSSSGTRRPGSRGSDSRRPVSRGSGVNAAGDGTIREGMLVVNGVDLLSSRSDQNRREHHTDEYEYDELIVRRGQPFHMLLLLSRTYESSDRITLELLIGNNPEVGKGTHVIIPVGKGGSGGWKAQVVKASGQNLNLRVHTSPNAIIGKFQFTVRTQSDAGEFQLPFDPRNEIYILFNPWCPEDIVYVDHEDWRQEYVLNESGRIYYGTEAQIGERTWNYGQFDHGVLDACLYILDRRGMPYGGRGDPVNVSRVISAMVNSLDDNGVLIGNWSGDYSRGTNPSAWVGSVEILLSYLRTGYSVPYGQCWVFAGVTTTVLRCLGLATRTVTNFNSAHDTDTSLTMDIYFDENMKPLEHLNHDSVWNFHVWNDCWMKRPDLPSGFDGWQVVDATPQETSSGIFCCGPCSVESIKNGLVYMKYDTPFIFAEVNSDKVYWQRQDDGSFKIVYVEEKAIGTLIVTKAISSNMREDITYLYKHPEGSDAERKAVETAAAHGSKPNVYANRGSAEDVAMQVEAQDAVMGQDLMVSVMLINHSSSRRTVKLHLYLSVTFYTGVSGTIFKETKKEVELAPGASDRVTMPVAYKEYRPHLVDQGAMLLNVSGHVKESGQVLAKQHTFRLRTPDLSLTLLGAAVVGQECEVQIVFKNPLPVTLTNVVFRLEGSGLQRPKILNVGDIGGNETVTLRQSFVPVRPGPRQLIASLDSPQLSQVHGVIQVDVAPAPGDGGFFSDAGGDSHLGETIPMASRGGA
The assay can be described thus: Transglutaminase inhibition, IC50 at TG1. The settings on record: Table 2.

`COC(=O)[C@H](CC(C)C)NC(=O)[C@@H]1CCCN1C(=O)[C@H](CCC(N)=O)NC(=O)[C@H](CCC1=CC(=O)CC1)NC(=O)OCc1ccccc1` [Compound 3.2.3, N^α-benzyloxycarbonyl-[(L)-2-amino-4-(3)-oxo-cyclopent-1-enyl]-butyryl-L-glutaminyl-L-prolinyl-L-leucine methyl ester]: the IC50 (commonly the concentration needed to halve the response being measured) in assay [1] is over 100 µM; in assay [2], 18 µM; in assay [3] it was 14000 nM.

For the compound `COC(=O)[C@H](CC(C)C)NC(=O)[C@@H]1CCCN1C(=O)[C@H](CCC(N)=O)NC(=O)[C@H](CC/C=C1\CCOC1=O)NC(=O)OCc1ccccc1` [Compound 3.2.4, N^α-benzyloxycarbonyl[(L)-2-amino-5-(2-oxo-dihydrofurane-(3E)-ylidene)]-pentanoyl-L-glutaminyl-L-prolinyl-L-Ieucine methyl ester], the IC50 in assay [1] is over 100 µM; in assay [2], 8.9 µM; in assay [3], 400 nM.

For `CCOC(=O)C(=O)/C=C/CC[C@H](NC(=O)OCc1ccccc1)C(=O)N[C@@H](Cc1ccccc1)C(=O)OC` [Compound 3.2.9], the concentration for half-maximal inhibition (IC50) in assay [1] is over 100 µM; in assay [2], 3.8 µM; in assay [3], 530 nM.

With `CC(C)OC(=O)C=CCCC(NC(=O)OCc1ccccc1)C(=O)NC(Cc1ccc(F)cc1)C(=O)N1CCCC1C(=O)O` [Compound 3.2.7, N^α-benzyloxycarbonyl)-{[(E)-(L)-6-amino-hept-2-ene-dicarboxylic acid]-1-isopropanoyl}-L-(p-fluoro-phenylalaninyl)-L-proline], the IC50 was over 100 µM in assay [1], 1.5 µM in assay [2] and 3700 nM in assay [3].

Source of the values: patent publication US8471063B2, “Michael systems as transglutaminase inhibitors” (Zedira GmbH, priority 2006, dated 2013).
